Values quoted from earlier work in patent US20130028992A1, “Herbal-Based Solution for Treating Symptoms of Nasal Conditions” (priority 2011, published 2013).

Legend:
[1] = test system: 25 strains of yeast, bacteria and mold
platelet aggregation = conditions: case of a heart attack

C=CCN=C=S [allyl isothiocyanate]
antimicrobial effect of vapor [1]: can combat 25 strains of yeast, bacteria and mold to varying degrees

CC(=O)Oc1ccccc1C(=O)O [aspirin]
time required to take effect (platelet aggregation): thirty
